For orientation: EC50 means the concentration that produces a half-maximal response. The low end stands for higher potency in that assay, the high end for lower potency in that assay. By DC50 is commonly meant the midpoint of the concentration-degradation curve.

Where two headings read alike, the source gives them in different places.

Common to all, as to type: cell-based
Experiment [1] has as its system Human Monocytic Leukemia MV4-11. The experiment can be described thus: Cell proliferation experiment (Alarm blue, 72 h, EC50). The procedure, abridged: (§1)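 Log-phase cells were seeded in 96-well plates, then exposed to test compound in a 5-fold dilution series, in duplicate, for 72 h. Fluorescence read by Alarm blue. EC50 fitted with a four-parameter (Min, Max, Slope) equation.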

In experiment [2] the test system is Human cervical adenocarcinoma cells Hela. The experiment is described as above. The settings on record: Homo sapiens. Summed up: as §1
Experiment [3] relates to Human Colon Cancer HCT-116. The description is as above. The conditions noted are these: Homo sapiens, HCT-116; HCT116 cells. Summed up: as §1
In a further experiment the target is T1, BRD4 (Homo sapiens, UniProt O60885).
T1 construct: endogenous in cells
Description: Western blot, protein degradation (DC50). Here is the method: (§2) Cells were treated with the compound for a period of time, after that the cells were collected by centrifugation. After washing with PBS, the cells were lysed by adding RIPA buffer; the cell lysate were added to the loading buffer and then appropriate volume were taken and slowly added to the corresponding wells of the gel plate, and run the SDS-PAGE gel (4%-12%). After running the gel, transferred to the PVDF membrane and sealed with 5% skimmed milk powder at room temperature for 1 hour. The membrane was placed in the primary antibody diluted with 5% skimmed milk powder and shaked slowly overnight at 4° C. After incubation with primary antibody, the membrane was washed 3 times using a TBST shaker; added secondary antibody diluted with 5% skimmed milk powder corresponding to the primary antibody, and shaked slowly at room temperature for 1 hour. After incubation with secondary antibody, the membrane was washed 3 times using the TBST shaker again. The PVDF membrane was flatted in the cassette, the strip was evenly infiltrated with ECL developer solution, and placed in ChemDoc XRS+ gel imager for taking pictures. The intensity of protein bands was analyzed quantitatively using ImageJ software.
On the technique in general: Immunoblotting shows a protein as a band on a membrane.

The target in another experiment is T2, PLK1 (Homo sapiens, UniProt P53350).
T2 construct: endogenous in cells
The experiment can be described thus: Western blot, protein degradation (DC50). Here is the method: as §2

Setting [4] is: Homo sapiens, MV4-11, MV4;11 cells.
The mark [5] stands for this setting: 24 h, western blot, read-out: BRD4 DC50 (24 h).
[6] abbreviates: 24 h, western blot, read-out: PLK1 DC50 (24 h).
Where [7] appears, read: 24 h, read-out: BRD4 DC50 (nM) (24 h).
The mark [8] stands for this setting: 24 h, read-out: PLK1 DC50 (nM) (24 h).

T2 sequence (P53350 whole entry): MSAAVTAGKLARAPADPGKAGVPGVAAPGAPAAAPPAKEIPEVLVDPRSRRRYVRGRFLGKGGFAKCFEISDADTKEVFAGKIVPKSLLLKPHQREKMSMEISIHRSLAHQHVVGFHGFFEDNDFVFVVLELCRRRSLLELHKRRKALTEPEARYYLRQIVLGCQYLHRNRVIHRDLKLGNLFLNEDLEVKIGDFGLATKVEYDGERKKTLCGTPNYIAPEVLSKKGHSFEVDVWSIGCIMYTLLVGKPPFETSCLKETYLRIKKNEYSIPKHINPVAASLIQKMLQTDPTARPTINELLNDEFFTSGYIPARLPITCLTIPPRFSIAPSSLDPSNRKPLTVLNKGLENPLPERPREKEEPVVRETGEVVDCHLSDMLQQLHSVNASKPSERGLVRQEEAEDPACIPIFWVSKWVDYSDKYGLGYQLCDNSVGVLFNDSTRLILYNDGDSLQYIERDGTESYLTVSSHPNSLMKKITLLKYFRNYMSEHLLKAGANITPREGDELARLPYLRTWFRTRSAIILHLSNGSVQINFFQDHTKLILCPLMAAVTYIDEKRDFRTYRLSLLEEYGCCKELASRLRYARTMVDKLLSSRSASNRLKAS

With `CC[C@@H]1c2nncn2-c2cnc(Nc3ccc(C(=O)NCCCOCC(=O)Nc4cccc5c4CN(C4CCC(=O)NC4=O)C5=O)cc3OC)nc2N1C1CCCC1` (stereo partly drawn) [UB-180510], the EC50 in experiment [1] (setting [4]) and in experiment [2] was over 1000 nM throughout.
For the molecule `CC[C@@H]1c2c(C#N)ncn2-c2cnc(Nc3ccc(C(=O)NCCCCOCC(=O)Nc4cccc5c4CN(C4CCC(=O)NC4=O)C5=O)cc3OC)nc2N1C1CCCC1` (stereo partly drawn) [UB-180512], the EC50 in experiment [1] (setting [4]) was 100 to 1000 nM; in experiment [2], over 1000 nM.
As for `CC[C@@H]1c2nncn2-c2cnc(Nc3ccc(C(=O)NCCOCCOCCOCC(=O)N[C@H](C(=O)N4C[C@H](O)C[C@H]4C(=O)NCc4ccc(-c5scnc5C)cc4)C(C)(C)C)cc3OC)nc2N1C1CCCC1` [UB-180516], the EC50 in experiment [1] (setting [4]) and in experiment [2] was over 1000 nM in each case.
Turning to `CC[C@@H]1c2c(C#N)ncn2-c2cnc(Nc3ccc(C(=O)NCCOCC(=O)Nc4cccc5c4CN(C4CCC(=O)NC4=O)C5=O)cc3OC)nc2N1C1CCCC1` (stereo partly drawn) [UB-180518], the EC50 in experiment [1] (setting [4]) and in experiment [2] was over 1000 nM in each case.
Turning to `CC[C@@H]1c2c(C#N)ncn2-c2cnc(Nc3ccc(C(=O)NCCOCCOCCOCC(=O)N[C@H](C(=O)N4C[C@H](O)C[C@H]4C(=O)NCc4ccc(-c5scnc5C)cc4)C(C)(C)C)cc3OC)nc2N1C1CCCC1` [UB-180519], the figures for the EC50 in experiment [1] (setting [4]) and in experiment [2] were 10 to 100 nM and over 1000 nM, respectively.
For `CC[C@@H]1c2nncn2-c2cnc(Nc3ccc(C(=O)NCCCC(=O)Nc4cccc5c4CN(C4CCC(=O)NC4=O)C5=O)cc3OC)nc2N1C1CCCC1` (stereo partly drawn) [UB-180521], in that order: over 1000 nM and over 1000 nM.
On the same counts, the results for `CC[C@@H]1c2nncn2-c2cnc(Nc3ccc(C(=O)NCCOCCOCCOCCC(=O)N[C@H](C(=O)N4C[C@H](O)C[C@H]4C(=O)NCc4ccc(-c5scnc5C)cc4)C(C)(C)C)cc3OC)nc2N1C1CCCC1` [UB-180522] are 100 to 1000 nM and over 1000 nM.
For `CC[C@@H]1c2nncn2-c2cnc(Nc3ccc(C(=O)NCCCCOCC(=O)Nc4cccc5c4CN(C4CCC(=O)NC4=O)C5=O)cc3OC)nc2N1C1CCCC1` (stereo partly drawn) [UB-180524], the EC50 was 10 to 100 nM in experiment [1] (setting [4]) and over 1000 nM in experiment [2].
For `CC[C@@H]1c2c(C#N)ncn2-c2cnc(Nc3ccc(C(=O)NCCCC(=O)Nc4cccc5c4CN(C4CCC(=O)NC4=O)C5=O)cc3OC)nc2N1C1CCCC1` (stereo partly drawn) [UB-180537], in that order: 100 to 1000 nM and over 1000 nM.
With `CC[C@@H]1C(=O)N(C)c2cnc(Nc3ccc(C(=O)NCCOCCOCCOCCNCCCC(=O)Nc4cccc5c4CN(C4CCC(=O)NC4=O)C5=O)cc3OC)nc2N1C1CCCC1` (stereo partly drawn) [UB-180647], the EC50 in experiment [3] is over 1000 nM; in experiment [1] (MV4;11 cells), 10 to 100 nM. The DC50 at BRD4 (setting [5]) is under 10 nM; at PLK1 (setting [6]) it was 10 to 100 nM.
In experiment [1] (setting [4]), `CC[C@@H]1C(=O)N(C)c2cnc(Nc3ccc(C(=O)NC4CCN(CCNCCOCC(=O)Nc5cccc6c5CN(C5CCC(=O)NC5=O)C6=O)C4)cc3OC)nc2N1C1CCCC1` (stereo partly drawn) [UB-180703] returned an EC50 of 10 to 100 nM. Also, the DC50 was under 10 nM at BRD4 (setting [5]) and 10 to 100 nM at PLK1 (setting [6]).
`CC[C@@H]1C(=O)N(C)c2cnc(Nc3ccc(C(=O)NCc4cn(CCCN(CCC(=O)Nc5cccc6c5CN(C5CCC(=O)NC5=O)C6=O)C(=O)OCc5ccc(NC(=O)[C@H](CCCNC(N)=O)NC(=O)[C@@H](NC(=O)CCCCCN6C(=O)C=CC6=O)C(C)C)cc5)nn4)cc3OC)nc2N1C1CCCC1` (stereo partly drawn) [UB-180717] showed an EC50 in experiment [1] (setting [4]) of 100 to 1000 nM. Besides, the DC50 at BRD4 (setting [7]) and on PLK1 (setting [8]) was 10 to 100 nM throughout.
`CC[C@@H]1c2c(C#N)ncn2-c2cnc(Nc3ccc(C(=O)NCc4cn(CCNCCOCC(=O)Nc5cccc6c5CN(C5CCC(=O)NC5=O)C6=O)nn4)cc3OC)nc2N1C1CCCC1` (stereo partly drawn) [UB-180718] registered an EC50 in experiment [1] (setting [4]) of 100 to 1000 nM. Further, the DC50 on BRD4 (setting [7]) and at PLK1 (setting [8]) was 100 to 1000 nM each time.
As to `CC[C@@H]1C(=O)N(C)c2cnc(Nc3ccc(C(=O)NC4CCN(CCOCCNCC(=O)Nc5cccc6c5CN(C5CCC(=O)NC5=O)C6=O)CC4)cc3OC)nc2N1Cc1cnc(C)s1` (stereo partly drawn) [UB-180745], the EC50 in experiment [1] (setting [4]) is under 10 nM. Further, the DC50 on BRD4 (6 h, read-out: BRD4 DC50 (nM) (6 h)) was under 10 nM; at BRD4 (setting [7]) it was under 10 nM; at PLK1 (6 h, read-out: PLK1 DC50 (nM) (6 h)), over 1000 nM; on PLK1 (setting [8]) it was under 10 nM.

These data come from US20210369853A1, “TARGETED PROTEASE DEGRADATION PLATFORM” (EUBULUS BIOTHERAPEUTICS INC., priority 2018, published 2021).
